The target in assay [1] is T1, hTRPV1 (Homo sapiens, UniProt Q8NER1).
T1 construct: expressed in transfected cells; host or cells: HEK-293
Nature of the assay: TRPV1 calcium influx assay (Fluo-4) in HEK-293 cells overexpressing human recombinant TRPV1. Format: cell-based. The conditions noted are these: for IC50: read-out: IC50 inh TRPV1; for Efficacy %: as percent of the effect of ionomycin (4 µM), HEK-293 cells overexpressing hTRPV1, means ± SEM, N >= 3.

Assay [2] has as its target T2, rTRPV4 (Rattus norvegicus, UniProt Q9ERZ8).
T2 construct: expressed in transfected cells; host or cells: HEK-293
As to the kind of experiment: TRPV4 calcium influx assay (Fluo-4) in HEK-293 cells overexpressing rat recombinant TRPV4. Format: cell-based. The conditions noted are these: for IC50: against the effect of GSK1016790A (10 nM) after a 5-min pre-incubation, read-out: IC50 inh. TRPV4; for Efficacy %: as percent of the effect of ionomycin (4 µM), HEK-293 cells overexpressing rTRPV4, means ± SEM, n >= 3. The source says:
The interaction properties of all homodrimane-derived compounds 1–16, 18–19, and 22–25 with either TRPV type-4 or type-1 were studied in human embryonic kidney (HEK)-293 cells overexpressing either the rat recombinant type-4 (rTRPV4), which shares with the human orthologue ~95% of sequence identity, and the human recombinant type-1 (hTRPV1) channel, evaluating the changes in intracellular calcium levels. […] Cell fluorescence before and after the addition of various concentrations of test compounds was measured normalizing the effects against the response to ionomycin (4 μM). […] Dose-response curve fitting (sigmoidal dose-response variable slope) and parameter estimation were performed with Graph-Pad Prism8® (GraphPad Software Inc., San Diego, CA, USA). All determinations were performed at least in triplicate.

The term IC50 denotes the concentration at which inhibition is half-maximal. What is called EC50 is the concentration needed to bring the measured effect to its halfway point.

T1 sequence (Q8NER1 whole entry): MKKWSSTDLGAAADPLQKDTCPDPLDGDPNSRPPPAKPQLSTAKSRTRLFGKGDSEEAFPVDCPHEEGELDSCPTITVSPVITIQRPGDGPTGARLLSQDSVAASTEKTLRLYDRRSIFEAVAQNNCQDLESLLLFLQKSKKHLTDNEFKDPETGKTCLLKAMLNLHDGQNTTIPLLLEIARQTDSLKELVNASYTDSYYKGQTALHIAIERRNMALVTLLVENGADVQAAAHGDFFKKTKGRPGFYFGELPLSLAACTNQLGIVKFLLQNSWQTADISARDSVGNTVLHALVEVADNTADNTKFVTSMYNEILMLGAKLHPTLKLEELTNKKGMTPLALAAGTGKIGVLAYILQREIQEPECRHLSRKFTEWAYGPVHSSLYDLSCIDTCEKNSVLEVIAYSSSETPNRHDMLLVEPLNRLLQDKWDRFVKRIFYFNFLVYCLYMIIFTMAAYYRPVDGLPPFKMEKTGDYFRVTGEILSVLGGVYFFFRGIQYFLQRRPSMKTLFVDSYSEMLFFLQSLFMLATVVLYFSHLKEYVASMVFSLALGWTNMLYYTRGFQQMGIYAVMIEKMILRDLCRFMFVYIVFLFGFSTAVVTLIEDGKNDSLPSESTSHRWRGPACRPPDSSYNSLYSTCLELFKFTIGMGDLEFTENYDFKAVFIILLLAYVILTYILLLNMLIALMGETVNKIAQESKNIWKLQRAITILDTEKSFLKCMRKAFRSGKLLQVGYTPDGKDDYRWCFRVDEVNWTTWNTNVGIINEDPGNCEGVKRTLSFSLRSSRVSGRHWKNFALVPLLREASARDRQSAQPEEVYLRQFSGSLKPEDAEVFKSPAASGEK
T2 sequence (Q9ERZ8 whole entry): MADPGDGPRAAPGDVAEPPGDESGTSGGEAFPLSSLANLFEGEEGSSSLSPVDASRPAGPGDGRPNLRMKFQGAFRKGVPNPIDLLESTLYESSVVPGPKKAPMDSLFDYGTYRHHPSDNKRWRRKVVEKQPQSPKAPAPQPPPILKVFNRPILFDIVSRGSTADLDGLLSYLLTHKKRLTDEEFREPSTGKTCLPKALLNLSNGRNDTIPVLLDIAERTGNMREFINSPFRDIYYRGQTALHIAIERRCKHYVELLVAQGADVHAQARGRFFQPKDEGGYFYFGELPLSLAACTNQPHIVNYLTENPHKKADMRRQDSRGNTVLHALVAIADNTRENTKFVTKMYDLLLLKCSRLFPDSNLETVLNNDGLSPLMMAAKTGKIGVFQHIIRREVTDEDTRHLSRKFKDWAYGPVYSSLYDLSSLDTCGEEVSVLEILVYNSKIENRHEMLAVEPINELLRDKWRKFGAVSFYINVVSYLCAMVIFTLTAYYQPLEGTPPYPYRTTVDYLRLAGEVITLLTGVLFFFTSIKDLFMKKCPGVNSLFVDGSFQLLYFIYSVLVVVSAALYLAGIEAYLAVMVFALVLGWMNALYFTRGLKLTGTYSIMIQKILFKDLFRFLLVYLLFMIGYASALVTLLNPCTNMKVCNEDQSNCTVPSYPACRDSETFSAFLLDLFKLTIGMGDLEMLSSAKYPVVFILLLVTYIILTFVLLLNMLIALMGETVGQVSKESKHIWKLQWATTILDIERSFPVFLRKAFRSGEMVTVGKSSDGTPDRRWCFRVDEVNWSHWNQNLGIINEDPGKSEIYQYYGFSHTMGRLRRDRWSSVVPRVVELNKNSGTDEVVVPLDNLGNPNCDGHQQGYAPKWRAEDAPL

`CC1(C)CCC[C@]2(C)[C@@H](CC(=O)NCCCn3ccnc3)[C@](C)(O)CC[C@@H]12` [Compound 16, N-(3-(1H-imidazol-1-yl)propyl)-2-((1R,2R,4aS,8aS)-2-hydroxy-2,5,5,8a-tetramethyldecahydronaphthalen-1-yl)acetamide]: the IC50 in assay [1] was greater than 100 µM. In addition, in assay [2], the “activity on rTRPV4 in words” value is recorded as “complete loss of activity”, the IC50 is greater than 100 µM and the Efficacy % was less than 10%.

Consider `CC1(C)CCC[C@]2(C)[C@@H](CC(=O)Nc3cc(F)ccc3F)[C@](C)(O)CC[C@@H]12` [Compound 2, N-(2,5-difluorophenyl)-2-((1R,2R,4aS,8aS)-2-hydroxy-2,5,5,8a-tetramethyldecahydronaphthalen-1-yl)acetamide], for which the IC50 in assay [1] and in assay [2] was greater than 100 µM throughout. In addition, the Efficacy % in assay [2] is less than 10%.

As for `CC1(C)CCC[C@]2(C)[C@@H](CC(=O)NCc3ccco3)[C@](C)(O)CC[C@@H]12` [Compound 14, N-(furan-2-ylmethyl)-2-((1R,2R,4aS,8aS)-2-hydroxy-2,5,5,8a-tetramethyldecahydronaphthalen-1-yl)acetamide], in assay [1], the Efficacy % was 25.2 ± 2.0% and the IC50 was greater than 100 µM. For the same compound, in assay [2], the “activity on rTRPV4 in words” value was “very weak antagonist properties”, the IC50 was determined as 53.5 ± 1.8 µM and the Efficacy % was less than 10%.

`CC1(C)CCC[C@]2(C)[C@@H](CC(=O)OCc3ccc(Cl)c(Cl)c3)[C@](C)(O)CC[C@@H]12` [Compound 19, 3,4-dichlorobenzyl 2-((1R,2R,4aS,8aS)-2-hydroxy-2,5,5,8a-tetramethyldecahydronaphthalen-1-yl)acetate]: in assay [1], the Efficacy % came to 17.5 ± 2.7% and the IC50 is greater than 100 µM. Further, in assay [2], the “activity on rTRPV4 in words” value is on record as “completely devoid of activity”, the IC50 was greater than 100 µM and the Efficacy % was less than 10%.

In the case of `COc1ccc(CNC(=O)C[C@@H]2[C@@]3(C)CCCC(C)(C)[C@@H]3CC[C@@]2(C)O)cc1` [Compound 8, 2-((1R,2R,4aS,8aS)-2-hydroxy-2,5,5,8a-tetramethyldecahydronaphthalen-1-yl)-N-(4-methoxybenzyl)acetamide], in assay [1], the Efficacy % came out at 19.7 ± 1.1% and the IC50 is greater than 100 µM. In addition, in assay [2], the IC50 was found to be 29.7 ± 0.7 µM and the Efficacy % is listed as less than 10%.

On to `CC1(C)CCC[C@]2(C)[C@@H](CC(=O)NCc3ccc(-c4ccccc4)cc3)[C@](C)(O)CC[C@@H]12` [Compound 15, N-((1,1′-biphenyl)-4-ylmethyl)-2-((1R,2R,4aS,8aS)-2-hydroxy-2,5,5,8a-tetramethyldecahydronaphthalen-1-yl)acetamide], for which the IC50 in assay [1] is greater than 100 µM. In assay [2], the “activity on rTRPV4 in words” value is on record as “completely devoid of activity”, the IC50 is greater than 100 µM and the Efficacy % is reported as less than 10%.

For `CC1(C)CCC[C@]2(C)[C@@H](CC(=O)NCCc3ccc(F)cc3)[C@](C)(O)CC[C@@H]12` [Compound 12, N-(4-fluorophenethyl)-2-((1R,2R,4aS,8aS)-2-hydroxy-2,5,5,8a-tetramethyldecahydronaphthalen-1-yl)acetamide], the half-inhibitory concentration (IC50) in assay [1] is greater than 100 µM. Besides, in assay [2], the IC50 was found to be 11.4 ± 0.1 µM and the Efficacy % is on record as less than 10%.

Consider `CC(C)C[C@H](NC(=O)c1cc2ccccc2s1)C(=O)N1CCN(C(=O)[C@H](CO)NS(=O)(=O)c2ccc(Cl)cc2Cl)CC1` [GSK1016790A, N-((1S)-1-{[4-((2S)-2-{[(2,4-dichlorophenyl)sulfonyl]amino} -3-hydroxypropanoyl)-1-piperazinyl]carbonyl}-3-methylbutyl)-1-benzothiophene-2-carboxamide, reference compound], for which the EC50 in assay [2] was 0.0035 µM.

As to `CC1(C)CCC[C@]2(C)[C@@H](CC(=O)NCCc3ccccc3)[C@](C)(O)CC[C@@H]12` [Compound 10, 2-((1R,2R,4aS,8aS)-2-hydroxy-2,5,5,8a-tetramethyldecahydronaphthalen-1-yl)-N-phenethylacetamide], in assay [2], the half-maximal inhibitory concentration (IC50) is 15.6 ± 0.3 µM and the Efficacy % is less than 10%.

Source of the values: PMC7594054, “Design, Synthesis and In Vitro Experimental Validation of Novel TRPV4 Antagonists Inspired by Labdane Diterpenes” (Marine Drugs, 2020).
